pIC50: −log10 of the molar value.
Legend:
A549 = experiment: Cytotoxicity against human A549 cells assessed as reduction in cell viability by MTT assay; assay type: functional, cell-based
HT-29 = experiment: Cytotoxicity against human HT-29 cells assessed as reduction in cell viability by MTT assay; assay type: functional, cell-based
KB = experiment: Cytotoxicity against human KB cells assessed as reduction in cell viability by MTT assay; assay type: functional, cell-based
HeLa = experiment: Cytotoxicity against human HeLa cells assessed as reduction in cell viability by MTT assay; assay type: functional, cell-based
Vero = experiment: Cytotoxicity against African green monkey Vero cells assessed as reduction in cell viability by MTT assay; assay type: cell-based; details: Chlorocebus sabaeus

**Q.** How did the pIC50 (A549) turn out when C[C@H]1[C@H](C)CC[C@]2(C(=O)O)CC[C@]3(COC(=O)/C=C/c4ccc(O)cc4)C(=CC[C@@H]4[C@@]5(C)CC[C@H](O)C(C)(C)[C@@H]5CC[C@]43C)[C@H]12 was run?
**A.** The pIC50 was 5.66.

**Q.** CO[C@H]1[C@@H](O)[C@H](O[C@H]2CC[C@@]3(C)[C@H](CC[C@@H]4[C@@H]3CC[C@]3(C)[C@@H](C5=CC(=O)OC5)[C@@H](O)C[C@]43O)C2)O[C@@H](C)[C@@H]1O[C@@H]1O[C@H](CO[C@@H]2O[C@H](CO)[C@@H](O)[C@H](O)[C@H]2O)[C@@H](O)[C@H](O)[C@H]1O was tested. Which pIC50 (HT-29) did it give?
**A.** Its pIC50 is < 5.00.

**Q.** And the pIC50 (KB)?
**A.** The pIC50 was < 5.00.

**Q.** What about the pIC50 (HeLa) of the same compound?
**A.** The pIC50 was < 5.00.

**Q.** And the pIC50 (Vero)?
**A.** Its pIC50 is < 5.00.

**Q.** CO[C@H]1[C@@H](O)[C@H](O[C@H]2CC[C@@]3(C)[C@H](CC[C@@H]4[C@@H]3CC[C@]3(C)[C@@H]([C@H]5COC(=O)C5)CC[C@]43O)C2)O[C@@H](C)[C@@H]1O[C@@H]1O[C@H](CO[C@@H]2O[C@H](CO)[C@@H](O)[C@H](O)[C@H]2O)[C@@H](O)[C@H](O)[C@H]1O was tested. Which pIC50 (HT-29) did it give?
**A.** Its pIC50 is < 5.00.

**Q.** And the pIC50 (KB)?
**A.** The pIC50 was < 5.00.

**Q.** What about the pIC50 (HeLa) of the same compound?
**A.** The pIC50 was < 5.00.

**Q.** And the pIC50 (Vero)?
**A.** Its pIC50 is < 5.00.

**Q.** Which results are given for CO[C@@H]1[C@@H](O[C@@H]2O[C@H](CO[C@@H]3O[C@H](CO)[C@@H](O)[C@H](O)[C@H]3O)[C@@H](O)[C@H](O)[C@H]2O)[C@H](C)O[C@@H](O[C@H]2CC[C@@]3(C)[C@H](CC[C@@H]4[C@@H]3CC[C@]3(C)[C@@H]([C@H]5COC(=O)C5)CC[C@]43O)C2)[C@@H]1OC(C)=O?
**A.** pIC50 (HT-29): < 5.00; pIC50 (KB): < 5.00; pIC50 (HeLa): < 5.00; pIC50 (Vero): < 5.00

**Q.** How did the pIC50 (HT-29) turn out when CO[C@H]1[C@@H](O)[C@H](C)O[C@@H](O[C@H]2CC[C@@]3(C)[C@H](CC[C@@H]4[C@@H]3CC[C@]3(C)[C@@H](C5=CC(=O)OC5)[C@@H](O)C[C@]43O)C2)[C@@H]1O was run?
**A.** The pIC50 was 6.52.

**Q.** And the pIC50 (KB)?
**A.** The pIC50 was 6.30.

**Q.** What about the pIC50 (HeLa) of the same compound?
**A.** The pIC50 was 5.21.

**Q.** What about the pIC50 (Vero) of the same compound?
**A.** Its pIC50 is 7.70.

**Q.** Which results are given for CO[C@H]1[C@@H](O)[C@H](O[C@H]2CC[C@@]3(C)[C@H](CC[C@@H]4[C@@H]3CC[C@]3(C)[C@@H]([C@H]5COC(=O)C5)CC[C@]43O)C2)O[C@@H](C)[C@@H]1O[C@@H]1O[C@H](CO)[C@@H](O)[C@H](O)[C@H]1O?
**A.** pIC50 (HT-29): < 5.00; pIC50 (KB): 5.18; pIC50 (HeLa): 5.21; pIC50 (Vero): < 5.00

**Q.** How did the pIC50 (HT-29) turn out when CO[C@@H]1[C@@H](O)[C@H](C)O[C@@H](O[C@H]2CC[C@@]3(C)[C@H](CC[C@@H]4[C@@H]3CC[C@]3(C)[C@@H](C5=CC(=O)OC5)[C@@H](O)C[C@]43O)C2)[C@@H]1O was run?
**A.** Its pIC50 is 6.70.

**Q.** And the pIC50 (KB)?
**A.** The pIC50 was 5.77.

**Q.** And the pIC50 (HeLa)?
**A.** The pIC50 was 7.10.

**Q.** What about the pIC50 (Vero) of the same compound?
**A.** The pIC50 was 5.89.

**Q.** CO[C@H]1[C@@H](O)[C@H](C)O[C@@H](O[C@H]2CC[C@@]3(C)[C@H](CC[C@@H]4[C@@H]3CC[C@]3(C)[C@@H]([C@H]5COC(=O)C5)CC[C@]43O)C2)[C@@H]1O was tested. Which pIC50 (HT-29) did it give?
**A.** The pIC50 was 5.39.

**Q.** What about the pIC50 (KB) of the same compound?
**A.** The pIC50 was 5.72.

**Q.** And the pIC50 (HeLa)?
**A.** Its pIC50 is 5.03.

**Q.** And the pIC50 (Vero)?
**A.** The pIC50 was 5.04.

**Q.** CO[C@@H]1[C@@H](O)[C@H](O[C@H]2CC[C@@]3(C)[C@H](CC[C@@H]4[C@@H]3CC[C@]3(C)[C@@H]([C@H]5COC(=O)C5)CC[C@]43O)C2)O[C@@H](C)[C@@H]1O[C@@H]1O[C@H](CO)[C@@H](O)[C@H](O)[C@H]1O was tested. Which pIC50 (HT-29) did it give?
**A.** Its pIC50 is 5.15.

**Q.** What about the pIC50 (KB) of the same compound?
**A.** Its pIC50 is 5.77.

**Q.** What about the pIC50 (HeLa) of the same compound?
**A.** Its pIC50 is 5.96.

**Q.** What about the pIC50 (Vero) of the same compound?
**A.** Its pIC50 is 6.30.

**Q.** With C[C@H]1[C@H](C)CC[C@]2(C(=O)O)CC[C@]3(COC(=O)/C=C\c4ccc(O)cc4)C(=CC[C@@H]4[C@@]5(C)CC[C@H](O)C(C)(C)[C@@H]5CC[C@]43C)[C@H]12 as the compound, how does the pIC50 (HeLa) read?
**A.** Its pIC50 is 5.21.

**Q.** How did the pIC50 (HT-29) turn out when CO[C@@H]1[C@@H](O)[C@H](O[C@H]2CC[C@@]3(C)[C@H](CC[C@@H]4[C@@H]3CC[C@]3(C)[C@@H](C5=CC(=O)OC5)[C@@H](O)C[C@]43O)C2)O[C@@H](C)[C@@H]1O[C@@H]1O[C@H](CO[C@@H]2O[C@H](CO)[C@@H](O)[C@H](O)[C@H]2O)[C@@H](O)[C@H](O)[C@H]1O was run?
**A.** The pIC50 was < 5.00.

**Q.** What about the pIC50 (KB) of the same compound?
**A.** The pIC50 was < 5.00.

**Q.** What about the pIC50 (HeLa) of the same compound?
**A.** The pIC50 was < 5.00.

**Q.** And the pIC50 (Vero)?
**A.** The pIC50 was < 5.00.

**Q.** With CC1(C)CC[C@]2(C(=O)O)CC[C@]3(COC(=O)/C=C\c4ccc(O)cc4)C(=CC[C@@H]4[C@@]5(C)CC[C@H](O)C(C)(C)[C@@H]5CC[C@]43C)[C@@H]2C1 as the compound, how does the pIC50 (HT-29) read?
**A.** Its pIC50 is 6.22.

**Q.** With CO[C@@H]1[C@@H](O)[C@H](C)O[C@@H](O[C@H]2CC[C@@]3(C)[C@H](CC[C@@H]4[C@@H]3CC[C@]3(C)[C@@H]([C@H]5COC(=O)C5)CC[C@]43O)C2)[C@@H]1O as the compound, how does the pIC50 (HT-29) read?
**A.** Its pIC50 is 6.70.

**Q.** And the pIC50 (KB)?
**A.** The pIC50 was 7.52.

**Q.** What about the pIC50 (HeLa) of the same compound?
**A.** The pIC50 was 6.30.

**Q.** What about the pIC50 (Vero) of the same compound?
**A.** The pIC50 was 6.22.

**Q.** What does the source list for COc1cccc2c1C(=O)c1c(O)c3c(c(O)c1C2=O)C[C@@](O)(C(=O)CO)C[C@@H]3O[C@H]1C[C@H](N)[C@H](O)[C@H](C)O1 [DOXORUBICIN]?
**A.** pIC50 (HT-29): 6.05; pIC50 (KB): 6.70; pIC50 (HeLa): 6.85; pIC50 (Vero): 5.89

— ChEMBL document CHEMBL4414675, “Cytotoxic 20,22-Dihydrodigitoxigenin Glycosides and Other Constituents of Vallaris glabra Stems” (J Nat Prod, 2019)
